Test results taken from patent US12070458B2, “Therapeutic agent composition and method of use, for treatment of mild congnitive impairment, depression, and psychological disorders” (priority 2018, dated 2024).

Key:
[1] = test system: patients with major depressive disorder; assay: Double-blind, randomized, placebo-controlled, active reference study in patients with major depressive disorder; type: in vivo, human; conditions: for change from baseline in MADRS total score, Mean ± SD / MADRS total score, Difference to Placebo: week 6, venlafaxine 75 mg/d orally
Description: This randomized, double-blind, fixed-dose, placebo-controlled, active reference study recruited 32 randomized patients in accordance with the principles of Good Clinical Practice [ICH (1996). Harmonized Tripartite Guideline E6: Guideline for Good Clinical Practice (http://www.fda.gov/downloads/drugs/guidancecomplianceregulatoryinformation/gui dances/ucm073122.pdf)] and the Declaration of Helsinki [WMA (1964). Ethical Principles for Medical Research Involving Human Subjects (http://www.wma.net/en/30publications/10policies/b3/). World Medical Association.] Local ethics committees approved the study design and eligible patients gave their written informed consent before participating.
Eligible patients were randomized equally (1:1:1:1) to one of the four treatment arms for a 6-week double-blind treatment period. Randomized patients were given 1-week wallet cards at each visit and were instructed to take two capsules per day, orally, at the same time every day (preferably in the morning). NA-831 was dosed at 20 mg/day or 40 mg/d for 6 week and venlafaxine at 75 mg/d over 6-week treatment period. Efficacy and tolerability were assessed at screening, baseline and after 1, 2, 3, 4, 5, and 6 week. Patients were contacted for a safety follow-up 4 week after the completion visit.
Patients with MDD presenting with a current major depressive episode according to DSM-IV-TR criteria were included in the study if they were an outpatient of either sex, aged from 20 yr to 65 yr, (mean=39.7±8.5) (with a Montgomery—Åsberg Depression Rating Scale (MADRS) (Montgomery & Åsberg, 1979) total score ≥30 at the baseline visit. [Montgomery S Åsberg M (1979). A new depression scale designed to be sensitive to change. British Journal of Psychiatry 134 382-389.https://doi.org/10.1192/bjp.134.4.382]
Patients were evaluated using the MADRS from baseline to week 6. Rater training was undertaken to increase inter-rater reliability, and was supervised by an experienced investigator. Only those investigators who had actively participated in rater training sessions prior to inclusion of patients into the study were allowed to rate patients. Patient ratings were assessed by the same investigator at each visit, whenever possible.
All safety analyses were based on the all-patients-treated set (APT), comprising all randomized patients who took at least one dose of study medication. All efficacy analyses were based on a modified intent-to-treat set (ITT)—the full-analysis set (FAS), comprising all patients in the […] who had at least one valid post-baseline MADRS total score assessment.
Four hypotheses were part of the primary efficacy analysis, which was fully adjusted for multiplicity using a hierarchical testing procedure at the 5% level of significance as long as the previous hypothesis was rejected. The order of testing was: no difference between the 20 mg dose vs. placebo at week 6, no difference between […] at week 6, no difference between 20 mg dose vs. placebo at week 1, and finally no difference between 40 mg dose vs. placebo at week 1. The statistical model was an analysis of covariance (ANCOVA) of the change from baseline in MADRS total score (FAS, LOCF) with treatment and site as fixed factors and the baseline MADRS score as a covariate. The primary efficacy analysis was repeated on observed cases (OC) data, using both an ANCOVA and a mixed model for repeated measurements (MMRM).
All adverse effects (AEs) (including any change in concurrent illnesses or new illnesses) either observed by the investigator or reported spontaneously by the patient were recorded. AEs were coded using the lowest level term according to the Medical Dictionary for Regulatory Activities, version 10.0. As a post-hoc analysis, the safety database was searched at preferred-term and verbatim-term level for possible suicide-related AEs, as described by the FDA [Laughren (2006). Memorandum on Suicidality. (http://www.fda.gov/ohrms/dockets/ac/06/briefing/2006-4272b1-01-fda.pdf)].

[2] = test system: 6-OHDA induced nigral-striatal lesion; assay: 6-OHDA induced nigral-striatal lesion, apomorphine-induced contralateral rotations; type: in vivo, Wistar rats; conditions: 1 mg (mg/kg) i.p. 2 hours post lesion; 7 days post-lesion, apomorphine 0.1 mg/kg; n=5; vehicle 290±18 or 292±21
Procedure: Twenty male Wistar rats (280-310 g) were used. After exposing the skull, 6-OHDA (8 μg in a base of 2 μl 0.9% saline containing 1% ascorbic acid) was administered into the right medial forebrain bundle (MFB) using co-ordinates AP +4.7 mm, R 1.6 mmv −8 mm under 3% halothane anaesthesia. 6-OHDA was injected through a 25G needle connected via a polyethylene catheter to a 100 μl Hamilton syringe. The 6-OHDA was infused by a microdialysis infusion pump at a rate of 0.5 μl/min. The needle was left in the brain for a further 3 minutes before being slowly withdrawn. The skin was sutured with 2.0 silk and the rats were allowed to recover from anaesthesia. The rats were housed in a holding room with free access to food and water at all times except during behavioural testing.
Cyclic PG was dissolved in saline. Four different doses of cPG (0, 0.1, 0.5, 1 mg/kg, Bachem) were administered intraperitoneally 2 hours post lesion.
At 7 days post-lesion, rats were injected with 0.1 mg/kg apomorphine and the number of contralateral rotations/hour was recorded and calculated using a computerised Rotameter (St Diego Instruments). Experimenter was blinded from the treatment groups.
Cyclic(tri(prolylglycyl)) was dissolved in saline solution. Four different doses of Cyclic(tri(prolylglycyl)) (0, 0.1, 0.5, 1 mg/kg, NeuroBiomed) were administered intraperitoneally 2 hours post lesion.
Cyclic Glycyl-2-Methyl Proline (cGMeP) was dissolved in saline solution. Four different doses of cGMeP (0, 0.1, 0.5, 1 mg/kg, NeuroBiomed) were administered intraperitoneally 2 hours post lesion.

[3] = test system: cerebellar microexplants (P4); assay: Glutamate induced neuronal death in cerebellar microexplants (P4); type: cell-based, Wistar rats
Procedure: Cerebellar Cell Culture Preparing and Coating of Cover Slips
Ten coverslips were placed into a large petri dish and washed in 70% alcohol for 5 minutes, then washed with Millipore H2O. The coverslips were air dried, then coated with Poly-D-Lysine (1 mg/ml stock solution in PBS, 90-100 μl) and incubated for 2 hours at 34° C.
Postnatal day 4 Wistar rats were used for the study. Rats were placed in ice for 1 minute, the heads were decapitated and the cerebellum removed on ice. Cerebellum tissue was placed in 1 ml of 0.65% glucose supplemented PBS (10 μl 65% stock D (+)glucose/1 ml PBS) in a large petri dish, chopped up into smaller sections and triturate with a 1 ml insulin syringe via a 23 G (0.4 mm) needle, and then squirted back into the glucose solution on the large petri dish. The tissue was sieved through (125 μm pore size gaze) and centrifuged (2 minutes at 60 g) two times for a medium exchange into serum-free BSA-supplemented START V medium (Biochrom). The second centrifugation step was done with 1 ml of START V medium. The microexplants were reconstituted into 500 μl of START V medium and put on ice.
Cultivation and Fixation of Cerebellar Cells
Two hours after PDL-coating, the slides were washed with Millipore H2O and air dried. Each slide was placed into a small 35 mm petri dish and 40 μl of START V/cell suspension added. The tissue was incubated for 2 hours at 34° C. (settlement period). START V-medium (1 ml) was then added to the petri dish and cultivated at 34° C./5% CO2/100% humidity for 48 hours. Cells were rinsed in PBS and then fixed for 2-3 minutes in increasing concentrations of paraformaldehyde (500 μl of 0.4% PFA was applied; then 1.2% PFA; then 3% PFA and finally 4% PFA—all fixation solutions contain 0.2% glutardialdehyde). Finally, the microexplants were rinsed in PBS.
(§1) 10 μl of toxin (L-glutamate-100 mM in Millipore water) was applied simultaneously with cPG (from bachem, 10 mM stock prepared in PBS and diluted to final concentrations between 1-100 nM) for Study 1. A delay in administration of cPG at 6 hours after glutamate treatment was performed for Study 2.
as §1, with “cyclic(tri(prolylglycyl)) (which was obtained from NeuroBiomed, San Jose, California),” for “cPG (from bachem,”, “cyclic(tri(prolylglycyl))” for “cPG”
as §1, with “cyclic Glycyl-2-Methyl Proline (obtained NeuroBiomed, San Jose California),” for “cPG (from bachem,”

Structure (SMILES) | patients with one or more AEs ([1]; 6-week treatment period, venlafaxine group) [%] | change from baseline in MADRS total score, Mean ± SD ([1]; LOCF, ANCOVA) | MADRS total score, Difference to Placebo ([1]; MMRM) | change from baseline in MADRS total score, Mean ± SD ([1]; MMRM) | MADRS total score, Difference to Placebo ([1]; MMRM, listed as venlafaxine) | MADRS total score, Difference to Placebo ([1]; OC, ANCOVA) | change from baseline in MADRS total score, Mean ± SD ([1]; OC, ANCOVA) | patients withdrawn due to AEs ([1]; venlafaxine group) | AEs reported by a majority of patients ([1]; venlafaxine group, 6 week) | number of contralateral rotations/hour [2] [rotations/hour] | improvement, recovery from glutamate induced neurotoxicity ([3]; 1-100 nM given 6 hours after the glutamate treatment, compared to vehicle) | reduction of glutamate induced neuronal death ([3]; administered simultaneously with glutamate, 1-100 nM, glutamate alone 85% loss of neurons) [%]
COc1ccc(C(CN(C)C)C2(O)CCCCC2)cc1 (stereo not drawn) [Venlafaxine, reference compound] | 75 | −21.9 ± 1.0 | −8.1 ± 1.3 | −23.5 ± 0.9 | 5.6±1.3 | −5.6 ± 1.3 | −22.2 ± 0.9 | 2 (25%) patients (%) | nausea, severe headache loss of strength, blurred vision, chest pain, fast or irregular heartbeat and suicidal thoughts | – | – | –
CC12CCCN1C(=O)CNC2=O [cGMeP, (8aS)-Methyl-hexahydropyrrolo[1,2-a]pyrazine-1,4-dione] | – | – | – | – | – | – | – | – | – | 134±69 | approximately 58% | 63
